Measurements from ChEMBL document CHEMBL1150393, “Evaluation of radiolabeled (hetero)aromatic analogues of N-(2-diethylaminoethyl)-4-iodobenzamide for imaging and targeted radionuclide therapy of melanoma” (J Med Chem, 2008).

Legend:
[1] = Binding affinity to melanin in water; parameters: concentration or dose not given beside the values; details: tested as the 125I-labelled form
[2] = Binding affinity to melanin in phosphate buffer solution; parameters: concentration or dose not given beside the values; details: tested as the 125I-labelled form

Row | Activity [1] [%] | Activity [2] [%] | Compound
1 | 80.8 | 50.9 | CCN(CC)CCNC(=O)c1ccc2cc(I)ccc2c1
2 | 84.5 | 47.1 | CCN(CC)CCNC(=O)c1nc2cc(I)ccc2[nH]1
3 | 79.8 | 43.1 | CCN(CC)CCNC(=O)c1cc2cc(I)ccc2[nH]1
4 | 87 | 45.2 | CCN(CC)CCNC(=O)c1cc2c(I)cccc2cn1
5 | 87 | 45.2 | CCN(CC)CCNC(=O)c1cc2cc(I)ccc2o1
6 | 44.8 | 35.3 | CCN(CC)CCNC(=O)c1ccc2cncc(I)c2n1
7 | 86.7 | 59 | CCN(CC)CCNC(=O)c1c[nH]c2ccc(I)cc2c1=O
